The values that follow come from patent publication US20230022724A1, “NOVEL IMIDAZOPYRAZINE DERIVATIVES” (Hoffmann-La Roche Inc., priority 2018, published 2023).

Structures can show the parent of a compound that is named as a salt.

For one assay, the system named is Acinetobacter baumannii ATCC17978. Description: Antimicrobial susceptibility testing: 90% growth inhibitory concentration (IC90) determination. The assay is classed as cell-based. To be noted: 90% growth inhibitory concentration, Acinetobacter baumannii ATCC17978, Iso-Sensitest broth, OD 600 nm over 16 h; read-out: ATCC17978 IC90. How it is done:
The in vitro antimicrobial activity of the compounds was determined according to the following procedure:
The assay used a 10-points Iso-Sensitest broth medium to measure quantitatively the in vitro activity of the compounds against Acinetobacter baumannii ATCC17978 and Acinetobacter baumannii ATCC17961.
Stock compounds in DMSO were serially twofold diluted (e.g. range from 50 to 0.097 μM final concentration) in 384 wells microtiter plates and inoculated with 49 μl the bacterial suspension in Iso-Sensitest medium to have a final cell concentration of ˜5×10^(5) CFU/ml in a final volume/well of 50 ul/well. Microtiter plates were incubated at 35±2° C.
Bacterial cell growth was determined with the measurement of optical density at λ=600 nm each 20 minutes over a time course of 16 h. Growth inhibition was calculated during the logarithmic growth of the bacterial cells with determination of the concentration inhibiting 50% (IC50) and 90% (IC90) of the growth.
Table 1 provides the 90% growth inhibitory concentrations (IC90) in micromoles per liter of the compounds of present invention obtained against the strain Acinetobacter baumannii ATCC17978 and Acinetobacter baumannii ATCC17961.
By IC90 is commonly meant the concentration needed for an effect of 90%. For the compound `CN(C)CCN1CCN(C(=O)c2ccc(Nc3nccn4c(-c5ccc(OCC#N)c(F)c5F)cnc34)cc2Cl)CC1` [Example 84, 2-[4-[8-[3-chloro-4-[4-[2-(dimethylamino)ethyl]piperazine-1-carbonyl]anilino]imidazo[1,2-a]pyrazin-3-yl]-2,3-difluorophenoxy]acetonitrile; 2,2,2-trifluoroacetic acid], the IC90 came out at 110 nM.

Still in this assay, the particulars now being: Acinetobacter baumannii, ATCC17978, 16 h, 90% growth inhibitory concentration, Acinetobacter baumannii ATCC17978, Iso-Sensitest broth, OD 600 nm over 16 h; read-out: ATCC17978 IC90.
Consider `Cn1cnnc1C1CCN(C(=O)c2ccc(Nc3nccn4c(-c5ccc(OCC#N)c(F)c5F)cnc34)cc2Cl)CC1` [Example 23, 2-[4-[8-[3-chloro-4-[4-(4-methyl-1,2,4-triazol-3-yl)piperidine-1-carbonyl]anilino]imidazo[1,2-a]pyrazin-3-yl]-2,3-difluoro-phenoxy]acetonitrile; 2,2,2-trifluoroacetic acid], for which the IC90 came to 160 nM.

For `COc1ccc(-c2cnc3c(Nc4ccc(C(=O)N5CCC(C(=O)N6CCNC(CO)C6)CC5)c(Cl)c4)nccn23)cc1F` (centres unmarked) [Example 70, [2-chloro-4-[[3-(3-fluoro-4-methoxyphenyl)imidazo[1,2-a]pyrazin-8-yl]amino]phenyl]-[4-[3-(hydroxymethyl)piperazine-1-carbonyl]piperidin-1-yl]methanone;hydrochloride], the IC90 came to 270 nM.

As to `COc1ccc(-c2cnc3c(Nc4ccc(C(=O)N5CCCCC5)cc4)nccn23)cc1Cl` [Example 65, [4-[[3-(3-chloro-4-methoxyphenyl)imidazo[1,2-a]pyrazin-8-yl]amino]phenyl]-piperidin-1-ylmethanone], the IC90 was found to be 1500 nM.

`CNCC(=O)N1CCN(C(=O)c2ccc(Nc3nccn4c(-c5ccc(OC)c(F)c5)cnc34)cc2Cl)CC1` [Example 18, 1-(4-(2-chloro-4-((3-(3-fluoro-4-methoxyphenyl)imidazo[1,2-a]pyrazin-8-yl)amino)benzoyl)piperazin-1-yl)-2-(methylamino)ethan-1-one hydrochloride]: the IC90 turned out to be 180 nM.

As to `COc1ccc(-c2cnc3c(Nc4ccc(C(=O)N5CCOCC5)cc4)nccn23)cc1Cl` [Example 38, (4-((3-(3-chloro-4-methoxyphenyl)imidazo[1,2-a]pyrazin-8-yl)amino)phenyl)(morpholino)methanone], the IC90 came out at 570 nM.

Consider `COc1ccc(-c2cnc3c(Nc4ccc(C(=O)N5CCC(N(C)C)C5)cc4)nccn23)cc1` (centres unmarked) [Example 66, [3-(dimethylamino)pyrrolidin-1-yl]-[4-[[3-(4-methoxyphenyl)imidazo[1,2-a]pyrazin-8-yl]amino]phenyl]methanone], for which the IC90 was 5900 nM.

For `N#CCOc1ccc(-c2cnc3c(Nc4ccc(C(=O)N5CCN(C(=O)N6CCN[C@@H](CO)C6)CC5)c(Cl)c4)nccn23)c(F)c1F` [Example 36, 2-[4-[8-[3-chloro-4-[4-[(3R)-3-(hydroxymethyl)piperazine-1-carbonyl]piperazine-1-carbonyl]anilino]imidazo[1,2-a]pyrazin-3-yl]-2,3-difluoro-phenoxy]acetonitrile], the IC90 was found to be 41 nM.

Consider `COc1ccc(-c2cnc3c(Nc4ccc(C(=O)N5CCOCC5)cc4)nccn23)cc1` [Example 61, [4-[[3-(4-methoxyphenyl)imidazo[1,2-a]pyrazin-8-yl]amino]phenyl]-morpholin-4-ylmethanone], for which the 90% effect concentration (IC90) worked out at 580 nM.

For `N#CCOc1ccc(-c2cnc3c(Nc4ccc(C(=O)N5CCC(c6ccncc6)CC5)c(Cl)c4)nccn23)c(F)c1F` [Example 21, 2-[4-[8-[3-chloro-4-[4-(4-pyridyl)piperidine-1-carbonyl]anilino]imidazo[1,2-a]pyrazin-3-yl]-2,3-difluoro-phenoxy]acetonitrile], the IC90 was 870 nM.

Regarding `C#CCOc1ccc(-c2cnc3c(Nc4ccc(C(=O)N5CCC(CN)CC5)c(Cl)c4)nccn23)c(F)c1F` [Example 75, [4-(aminomethyl)piperidin-1-yl]-[2-chloro-4-[[3-(2,3-difluoro-4-prop-2-ynoxyphenyl)imidazo[1,2-a]pyrazin-8-yl]amino]phenyl]methanone], the IC90 was 85 nM.

The same assay, now with this note: Acinetobacter baumannii, ATCC17978, 16 h, read-out: ATCC17978 IC90.
With `CS(=O)(=O)C1CCN(CCN2CCN(C(=O)c3ccc(Nc4nccn5c(-c6ccc(OCC#N)c(F)c6F)cnc45)cc3Cl)CC2)C1` (centres unmarked) [Example 103, 2-[4-[8-[3-chloro-4-[4-[2-(3-methylsulfonylpyrrolidin-1-yl)ethyl]piperazine-1-carbonyl]anilino]imidazo[1,2-a]pyrazin-3-yl]-2,3-difluorophenoxy]acetonitrile; 2,2,2-trifluoroacetic acid], the 90% effect concentration (IC90) is 180 nM.

For `Cc1cc(Nc2nccn3c(-c4ccc(OC(F)F)cc4)cnc23)ccc1C(=O)N1CCN(C(=O)N2CCN[C@H](C(=O)O)C2)CC1` [Example 82, (2S)-4-[4-[4-[[3-[4-(difluoromethoxy)phenyl]imidazo [1,2-a]pyrazin-8-yl]amino]-2-methylbenzoyl]piperazine-1-carbonyl]piperazine-2-carboxylic acid;hydrochloride], the IC90 was found to be 1000 nM.

As for `N#CCOc1ccc(-c2cnc3c(Nc4ccc(C(=O)N5CCC(C(=O)N6CCN[C@@H](C(=O)O)C6)CC5)c(Cl)c4)nccn23)c(F)c1F` [Example 46, (R)-4-(1-(2-chloro-4-((3-(4-(cyanomethoxy)-2,3-difluorophenyl)imidazo[1,2-a]pyrazin-8-yl)amino)benzoyl)piperidine-4-carbonyl)piperazine-2-carboxylic Acid; Formic Acid], the IC90 was 890 nM.

Consider `N#CCOc1ccc(-c2cnc3c(Nc4ccc(C(=O)N5CCC(C(=O)N6CCN[C@H](CO)C6)CC5)c(Cl)c4)nccn23)c(F)c1F` [Example 87, 2-[4-[8-[3-chloro-4-[4-[(3S)-3-(hydroxymethyl)piperazine-1-carbonyl]piperidine-1-carbonyl]anilino]imidazo[1,2-a]pyrazin-3-yl]-2,3-difluorophenoxy]acetonitrile; formic acid], for which the IC90 is 52 nM.

As to `CNCCNC(=O)C1CCN(C(=O)c2ccc(Nc3nccn4c(-c5ccc(OC)c(F)c5)cnc34)cc2Br)CC1` [Example 44, 1-(2-bromo-4-((3-(3-fluoro-4-methoxyphenyl)imidazo[1,2-a]pyrazin-8-yl)amino)benzoyl)-N-(2-(methylamino)ethyl)piperidine-4-carboxamide; Formic Acid], the 90% effect concentration (IC90) worked out at 300 nM.

`N#CCOc1ccc(-c2cnc3c(Nc4ccc(C(=O)N5CCN(CCN6CCCC6CO)CC5)c(Cl)c4)nccn23)c(F)c1F` (centres unmarked) [Example 93, 2-[4-[8-[3-chloro-4-[4-[2-[2-(hydroxymethyl)pyrrolidin-1-yl]ethyl]piperazine-1-carbonyl]anilino]imidazo[1,2-a]pyrazin-3-yl]-2,3-difluorophenoxy]acetonitrile; 2,2,2-trifluoroacetic acid]: the IC90 came to 53 nM.

Take `N#CCOc1ccc(-c2cnc3c(Nc4ccc(C(=O)N5CCC(C(=O)N6CCN[C@@H](CO)C6)CC5)c(Cl)c4)nccn23)c(F)c1F` [Example 85, 2-[4-[8-[3-chloro-4-[4-[(3R)-3-(hydroxymethyl)piperazine-1-carbonyl]piperidine-1-carbonyl]anilino]imidazo[1,2-a]pyrazin-3-yl]-2,3-difluorophenoxy]acetonitrile; formic acid]: the concentration for an effect of 90% (IC90) was 46 nM.

Regarding `N#CCOc1ccc(-c2cnc3c(Nc4ccc(C(=O)N5CCN(CCN6CC(CO)C6)CC5)c(Cl)c4)nccn23)c(F)c1F` [Example 92, 2-[4-[8-[3-chloro-4-[4-[2-[3-(hydroxymethyl)azetidin-1-yl]ethyl]piperazine-1-carbonyl]anilino]imidazo[1,2-a]pyrazin-3-yl]-2,3-difluorophenoxy]acetonitrile; 2,2,2-trifluoroacetic acid], the IC90 is 50 nM.

As to `CN(C)CC1CN(CCN2CCN(C(=O)c3ccc(Nc4nccn5c(-c6ccc(OCC#N)c(F)c6F)cnc45)cc3Cl)CC2)C1` [Example 99, 2-[4-[8-[3-chloro-4-[4-[2-[3-[(dimethylamino)methyl]azetidin-1-yl]ethyl]piperazine-1-carbonyl]anilino]imidazo[1,2-a]pyrazin-3-yl]-2,3-difluorophenoxy]acetonitrile; 2,2,2-trifluoroacetic acid], the IC90 was 170 nM.

With `CN(C)C1CCN(CCN2CCN(C(=O)c3ccc(Nc4nccn5c(-c6ccc(OCC#N)c(F)c6F)cnc45)cc3Cl)CC2)CC1` [Example 101, 2-[4-[8-[3-chloro-4-[4-[2-[4-(dimethylamino)piperidin-1-yl]ethyl]piperazine-1-carbonyl]anilino]imidazo[1,2-a]pyrazin-3-yl]-2,3-difluorophenoxy]acetonitrile; 2,2,2-trifluoroacetic acid], the IC90 turned out to be 170 nM.

Take `COc1ccc(-c2cnc3c(Nc4ccc(C(=O)N5CCC(C(=O)N6CCOC(CN)C6)CC5)c(Cl)c4)nccn23)cc1F` (centres unmarked) [Example 52, [4-[2-(aminomethyl)morpholine-4-carbonyl]piperidin-1-yl]-[2-chloro-4-[[3-(3-fluoro-4-methoxyphenyl)imidazo[1,2-a]pyrazin-8-yl]amino]phenyl]methanone; hydrochloride]: the IC90 turned out to be 88 nM.

As to `N#CCOc1ccc(-c2cnc3c(Nc4ccc(C(=O)N5CCN(CCN6CC(O)C6)CC5)c(Cl)c4)nccn23)c(F)c1F` [Example 96, 2-[4-[8-[3-chloro-4-[4-[2-(3-hydroxyazetidin-1-yl)ethyl]piperazine-1-carbonyl]anilino]imidazo[1,2-a]pyrazin-3-yl]-2,3-difluorophenoxy]acetonitrile; 2,2,2-trifluoroacetic acid], the IC90 stood at 73 nM.
